Measurements: the CombiSolv-Exp solvation set (Vermeire and Green 2021)

Experiment: solvent given as SMILES

COc1cc(C(C)=O)ccc1O
Settings	solvation free energy, 298 K [kcal/mol]
in CCC(C)=O	-12.2
in CCCO	-11.8
in Cc1ccccc1	-10.8
in ClC=CCl	-12

Cc1ccccc1
Settings	solvation free energy, 298 K [kcal/mol]
in Brc1ccccc1	-5.15
in C1CCCCC1	-4.89
in C1CCOC1	-5.44
in C1COCCO1	-5.15
in C=CCCCCCCCCCCCCCC	-4.57
in CC1CCS(=O)(=O)C1	-4.64
in CC1COC(=O)O1	-4.43
in CC#N	-4.72
in CC(=O)N(C)C	-4.91
in CC(=O)O	-4.57
in CC(=O)c1ccccc1	-4.93
in CC(C)(C)O	-4.41
in CC(C)=O	-4.97
in CC(C)CC(C)(C)C	-4.66
in CC(C)CCCC(C)CCCC(C)CCCCC(C)CCCC(C)CCCC(C)C	-4.43
in CC(C)CCO	-4.47
in CC(C)CO	-4.37
in CC(C)O	-4.38
in CC(C)OC(C)C	-4.89
in CC(Cl)Cl	-5.32
in CC(O)CO	-3.58
in CCBr	-5.44
in CCC#N	-5.16
in CCC(C)=O	-5.07
in CCCC#N	-5.01
in CCCCC	-4.75
in CCCCC(CC)COC(=O)CCCCC(=O)OCC(CC)CCCC	-4.78
in CCCCC(CC)COC(=O)c1ccccc1C(=O)OCC(CC)CCCC	-4.55
in CCCCCC	-4.78
in CCCCCCC	-4.74
in CCCCCCCCCC	-4.66
in CCCCCCCCCCCCCCCC	-4.57
in CCCCCCCCO	-4.5
in CCCCCCO	-4.53
in CCCCCO	-4.49
in CCCCCl	-5.16
in CCCCN(C=O)CCCC	-4.91
in CCCCO	-4.52
in CCCCOC(=O)c1ccccc1C(=O)OCCCC	-4.82
in CCCCOC(C)=O	-5.5
in CCCCOCCCC	-4.88
in CCCO	-4.51
in CCN1CCCC1=O	-5.06
in CCN(CC)C(C)=O	-4.97
in CCN(CC)CC	-4.93
in CCNC(C)=O	-4.57
in CCNC=O	-4.49
in CCO	-4.46
in CCOC(=O)c1ccccc1C(=O)OCC	-4.68
in CCOC(C)=O	-5.04
in CCOCC	-5.12
in CCOCCOCCOCC	-4.96
in CCOc1ccccc1	-5.02
in CN1CCCC1=O	-4.95
in CN1CCCCC1=O	-5.02
in CN(C)C=O	-4.89
in CN(C)P(=O)(N(C)C)N(C)C	-5
in CNC(C)=O	-4.57
in CNC=O	-4.35
in CO	-4.35
in COCCO	-4.55
in COc1ccccc1	-5.04
in CS(C)=O	-4.53
in Cc1ccc(C)cc1	-5.08
in Cc1cccc(C)n1	-5.1
in Cc1cccc(O)c1	-4.63
in Cc1ccccn1	-5.12
in ClC(Cl)(Cl)Cl	-5.18
in ClC(Cl)Cl	-5.53
in ClCCCl	-5.3
in ClCCl	-5.5
in Clc1ccccc1	-5.2
in FC(F)(F)C(F)(F)C(F)(F)C(F)(F)C(F)(F)C(F)(F)F	-3.08
in Fc1c(F)c(F)c(F)c(F)c1F	-5.33
in Fc1ccccc1	-5.24
in ICI	-4.53
in Ic1ccccc1	-5.03
in NC=O	-3.02
in NCCO	-3.5
in Nc1ccccc1	-4.6
in O	-0.85
in O=C1CCCCC1	-5.13
in O=C1CCCO1	-4.72
in O=CN1CCOCC1	-4.48
in O=Cc1ccco1	-4.56
in OCCCCCO	-3.84
in OCCCCO	-3.79
in OCCCO	-3.52
in OCCO	-3.02
in OCCOCCOCCOCCO	-3.99
in OCCS	-4.12
in OCc1ccccc1	-4.53
in S=C=S	-5.33
in [2H]O[2H]	-0.99
in c1ccc2ncccc2c1	-4.82
in c1ccc(COCc2ccccc2)cc1	-4.79
in c1ccccc1	-5.32
in c1ccncc1	-5.11

Brc1c(Br)c(Br)c(Br)c(Br)c1Br
Settings	solvation free energy, 298 K [kcal/mol]
in CCCCCCCCC=CCCCCCCCC(=O)OCC(COC(=O)CCCCCCCC=CCCCCCCCC)OC(=O)CCCCCCCC=CCCCCCCCC	-12.7
in O	-3.08

Clc1cc(-c2cc(Cl)c(Cl)c(Cl)c2Cl)cc(Cl)c1Cl
Settings	solvation free energy, 298 K [kcal/mol]
in O	-3.17

c1ccc2c(c1)Cc1ccccc1O2
Settings	solvation free energy, 298 K [kcal/mol]
in C1CCOC1	-10.9
in C1COCCO1	-10.8
in CC(C)(C)O	-9.25
in CC(C)CC(C)(C)C	-9.39
in CC(C)CC(C)O	-9.34
in CC(C)CCO	-9.39
in CC(C)CO	-9.24
in CC(C)O	-9.22
in CC(C)OC(C)C	-9.95
in CCC(C)(C)O	-9.49
in CCC(C)O	-9.33
in CCCC(C)CO	-9.42
in CCCC(C)O	-9.43
in CCCCCC	-9.63
in CCCCCCC	-9.67
in CCCCCCCC	-9.68
in CCCCCCCCCC	-9.67
in CCCCCCCCCCO	-9.67
in CCCCCCCCO	-9.67
in CCCCCCCO	-9.66
in CCCCCCO	-9.63
in CCCCCO	-9.57
in CCCCO	-9.53
in CCCCOCCCC	-10.1
in CCCO	-9.41
in CCO	-9.19
in CCOCC	-10.5
in CO	-9.2
in COC(C)(C)C	-10.3
in ClC(Cl)(Cl)Cl	-10.8
in ClCCCl	-10.8

CCCN(C)N=O
Settings	solvation free energy, 298 K [kcal/mol]
in CC(C)CC(C)(C)C	-4.99

C1CCCCCC1
Settings	solvation free energy, 298 K [kcal/mol]
in CC(C)O	-4.24
in CCCCCCCCCCCCCCCC	-4.83
in CCCO	-4.27
in CN1CCCC1=O	-3.99
in CN(C)C=O	-3.79
in CS(C)=O	-3.1
in N#CCCCCC#N	-3.34
in NCCO	-2.41
in O	0.79
in O=Cc1ccco1	-3.85
in OCc1ccco1	-3.74

CCOC(C)O (stereo not given)
Settings	solvation free energy, 298 K [kcal/mol]
in O	-6.7

Clc1c(Cl)c(Cl)c2ccccc2c1Cl
Settings	solvation free energy, 298 K [kcal/mol]
in CCCCCCCCC=CCCCCCCCC(=O)OCC(COC(=O)CCCCCCCC=CCCCCCCCC)OC(=O)CCCCCCCC=CCCCCCCCC	-9.56
in O	-2.69

O=c1c2ccccc2sc2ccccc12
Settings	solvation free energy, 298 K [kcal/mol]
in C1CCOC1	-13.2
in C1COCCO1	-12.9
in CC(C)CC(C)(C)C	-10.7
in CC(C)CCO	-11.8
in CC(C)CO	-11.7
in CC(C)O	-11.9
in CC(C)OC(C)C	-11.6
in CC(C)OCCO	-12.3
in CCC(C)O	-11.8
in CCCC(=O)OC	-12.5
in CCCC(C)CO	-11.9
in CCCC(C)O	-11.9
in CCCCC(CC)CO	-12
in CCCCCC	-10.9
in CCCCCCC	-11
in CCCCCCCC	-11.1
in CCCCCCCCC=CCCCCCCCC(=O)OCC(COC(=O)CCCCCCCC=CCCCCCCCC)OC(=O)CCCCCCCC=CCCCCCCCC	-11.8
in CCCCCCCCCCO	-12.1
in CCCCCCCCO	-12.1
in CCCCCCCO	-12
in CCCCCCO	-12
in CCCCCO	-11.9
in CCCCCOC(C)=O	-12.4
in CCCCO	-11.9
in CCCCOC(C)=O	-12.4
in CCCCOCCCC	-11.7
in CCCCOCCO	-12.4
in CCCO	-11.8
in CCCOCCO	-12.4
in CCO	-11.9
in CCOC(C)=O	-12.5
in CCOCCO	-12.4
in CO	-11.5
in COC(C)(C)C	-11.9
in COC(C)=O	-12.6
in Cc1ccc(C)cc1	-12.6
in Cc1cccc(C)c1	-12.6
in Cc1ccccc1C	-12.7
in O	-6.9
